Laboratory results as given in US10723730B2, “Solid forms of a selective CDK4/6 inhibitor” (PFIZER INC., priority 2013, dated 2020).

How the values were obtained:
[1] = particle size analysis by laser diffraction; assay type: physicochemical
Description: Particle sizes for the recrystallized materials were assessed using laser diffraction methods. Laser diffraction is recognized by standards and guidance agencies including ISO and ASTM and is widely used to determine particle size distributions. In conducting the assessment, the sample is passed through a laser beam which results in laser light scattered at a range of angles. Detectors placed at fixed angles measure the intensity of light scattered at that position. A mathematical model (Mie or Fraunhoffer Theory) is then applied to generate a particle size distribution.
The particle size was analyzed using the laser diffraction (or small angle light scattering) technique by dispersing the dry sample powder with compressed air. Specifically, the particle size distribution was analyzed using the Sympatec HELOS RODOS system equipped with a Vibri dry powder feeder. The powder sample was dispersed with a dispersion pressure of 0.5 bar. In some instances, an Aspiros micro-dosing device was used, and the powder sample was dispersed with a dispersion pressure of 0.2 bar. A suitable lens was selected to cover the particle size range of each sample.

[2] = small-scale crystallization studies; assay type: physicochemical; details: 50 mg/mL, 10 mg scale, warmed to reflux
Description: A series of small-scale crystallization experiments was run to identify a potential recrystallization solvent system as well as to assess the impact of solvent on the shape of the free base primary particles isolated. An initial set of 14 screening studies were run on a 10 mg scale using sealed vials and an external heat source to warm the 50 mg/mL samples up to reflux temperature. Visual observation identified the samples that went into solution, and photomicroscopy was used to characterize the particles produced.

[3] = MASS (Material Adhesion Screen for Sticking) Punch; assay type: physicochemical; details: 10% API in standard blend (89.75% Avicel PH102, 0.25% magnesium stearate); up to 100 compressions
Source text: The MASS (Material Adhesion Screen for Sticking) Punch was developed in-house to quantitatively assess the sticking propensity of tablet formulations by weighing the amount of adhered powder on removable punch tip after a series of compressions. This test enables formulators to objectively and quickly evaluate the risk of punch sticking during drug product development and troubleshoot sticking observed during clinical tablet manufacturing. To prepare the sample for MASS Punch testing, 10 g of API was diluted in a lightly lubricated standard blend (10% API, 89.75% Avicel PH102 and 0.25% magnesium stearate) and bottle blended (500 mL amber glass bottle) for 500 rotations. The weight of powder adhered to the removable punch tip (½″ round flat faced) was assessed using a microbalance periodically up to 100 compressions of ˜250 mgW tablets at a target solid fraction of 0.85.

[4] = kinetic solubility measurements (dissolution temperature); assay type: physicochemical; details: 25 mg/mL, max 110° C.
Description: In an initial room temperature solubility screening study, a total of 23 solvents were screened. […] Subsequent targeted higher temperature solubility studies were conducted.

[5] = UPLC/MS testing of the saturated solution; assay type: physicochemical; details: saturated solution from experiments #3 (NMP) and #11 (10% n-BuOH/NMP) of Table 6
[6] = physical properties of free base isolated from standard salt break process; assay type: physicochemical; details: free base isolated directly from a standard salt break process
Source text: As punch sticking is related to API surface area, API particle size control is critical for minimizing sticking during drug product manufacturing. […] Free base API with similarly poor physical properties was produced by free basing of the existing isethionate salt API or by neutralization of the in situ salt formed in the final step of the API synthesis. In either process, small API primary particles were produced due to the rapid crystallization caused by the dramatic change in solubility with adjustment of the pH.

[7] = free base prepared by traditional salt break procedure; cited from earlier work

Which “Particle size D [4, 3]” value ([1]; 0.2 Bar ASPIROS dispersion) does the source give for `CC(=O)c1c(C)c2cnc(Nc3ccc(N4CCNCC4)cn3)nc2n(C2CCCC2)c1=O` [compound 1, 6-acetyl-8-cyclopentyl-5-methyl-2-(5-piperazin-1-yl-pyridin-2-ylamino)-8H-pyrido[2,3-d]pyrimidin-7-one] here?
The value was 21.33 μm.

And the “Particle size D [v, 0.1]” value ([1]; 0.2 Bar ASPIROS dispersion)?
The value was 5.21 μm.

And the “Particle size D [v, 0.5]” value ([1]; 0.2 Bar ASPIROS dispersion)?
Its value is 17.00 μm.

What about the “Particle size D [v, 0.9]” value ([1]; 0.2 Bar ASPIROS dispersion) of the same molecule?
The value was 43.59 μm.

What about the D90 ([1]; Table 11) of the same molecule?
Its D90 is “approximately 45 μm”.

And the Results of recrystallization ([2]; Anisole)?
Its Results of recrystallization is “large particles (lathes or tomahawk shape)”.

And the Results of recrystallization ([2]; Chlorobenzene)?
Its Results of recrystallization is “small irregular shaped particles”.

And the Results of recrystallization ([2]; Cyclopentylmethyl ether)?
Its Results of recrystallization is “did not dissolve”.

And the Results of recrystallization ([2]; DMF)?
The Results of recrystallization was “small needle shaped particles”.

And the Results of recrystallization ([2]; Mesitylene)?
Its Results of recrystallization is “small needle shaped particles”.

What about the Results of recrystallization ([2]; NMP) of the same molecule?
The Results of recrystallization was “small irregular shaped particles”.

And the Results of recrystallization ([2]; Propylene glycol)?
The Results of recrystallization was “small irregular shaped particles”.

What about the Results of recrystallization ([2]; Pyridine) of the same molecule?
Its Results of recrystallization is “small lathe shaped particles”.

What about the Results of recrystallization ([2]; Sulfolane) of the same molecule?
Its Results of recrystallization is “small irregular shaped particles”.

What about the Results of recrystallization ([2]; Toluene) of the same molecule?
The Results of recrystallization was “did not dissolve”.

What about the Results of recrystallization ([2]; Trifluorotoluene) of the same molecule?
The Results of recrystallization was “did not dissolve”.

And the Results of recrystallization ([2]; m-Xylene)?
The Results of recrystallization was “small/medium tomahawk shaped particles”.

What about the Results of recrystallization ([2]; n-Butanol) of the same molecule?
Its Results of recrystallization is “did not dissolve”.

And the Results of recrystallization ([2]; n-Butyl Acetate)?
The Results of recrystallization was “did not dissolve”.

And the “MASS Punch profile (sticking propensity)” value [3]?
The value was “positive response”.

And the “Dissolution Temp.” value ([4]; 1:1:8 propylene glycol/n-BuOH/anisole (v/v))?
The value was 91.2 °C.

And the “Dissolution Temp.” value ([4]; 2:1:7 propylene glycol/n-BuOH/anisole (v/v))?
Its value is 84.1 °C.

And the “Dissolution Temp.” value ([4]; 10% 1,4-butanediol/anisole (v/v))?
The value was 109.8 °C.

What about the “Dissolution Temp.” value ([4]; 10% n-BuOH/Anisole (v/v)) of the same molecule?
Its value is >110° ° C.

What about the “Dissolution Temp.” value ([4]; 10% n-BuOH/NMP (v/v)) of the same molecule?
Its value is 103.7 °C.

What about the “Dissolution Temp.” value ([4]; 20% n-BuOH/Anisole (v/v)) of the same molecule?
The value was 109.7 °C.

And the “Dissolution Temp.” value ([4]; 25% 1,4-butanediol/anisole (v/v))?
The value was 104.8 °C.

And the “Dissolution Temp.” value ([4]; 25% n-BuOH/NMP (v/v))?
Its value is >110° ° C.

And the “Dissolution Temp.” value ([4]; 40% n-BuOH/Anisole (v/v))?
Its value is 101.4 °C.

What about the “Dissolution Temp.” value ([4]; Anisole) of the same molecule?
Its value is >110° ° C.

What about the “Dissolution Temp.” value ([4]; DMAc) of the same molecule?
Its value is >110° ° C.

And the “Dissolution Temp.” value ([4]; DMF)?
Its value is >110° ° C.

And the “Dissolution Temp.” value ([4]; DMSO)?
The value was >110° ° C.

And the “Dissolution Temp.” value ([4]; NMP)?
Its value is 97.9 °C.

What about the “Dissolution Temp.” value ([4]; n-BuOH) of the same molecule?
Its value is >110° ° C.

What about the “Dissolution Temp.” value ([4]; n-Butyl acetate) of the same molecule?
Its value is >110° ° C.

And the “chemical stability in solution (impurity peak by UPLC/MS)” value [5]?
Its value is “degradation occurred”.

And the “size of hard agglomerates” value [6]?
The value was “approximately 500 microns”.

And the “bioavailability in animal studies” value [7]?
Its value is “low”.
